Test results reported in US7084136B2, “Drug composition antagonistic to both PGD2/TXA2 receptors” (Shionogi & Co., Ltd., priority 2000, dated 2006).
Where two headings read alike, the source gives them in different places.

How the values were obtained:
PGD2 receptor [1] = molecular target: T1, PGD2 receptor (Homo sapiens, UniProt Q13258); test: Antagonistic activity against PGD2 receptor using human platelet (inhibition of PGD2-induced cAMP increase); assay type: cell-based
T1 construct: A suspension adjusted to contain the platelets at a final concentration of 5×10^8/ml was warmed at 37° C; endogenous in cells; host or cells: washed human platelets from a healthy volunteer
T1 sequence (Q13258 1-359): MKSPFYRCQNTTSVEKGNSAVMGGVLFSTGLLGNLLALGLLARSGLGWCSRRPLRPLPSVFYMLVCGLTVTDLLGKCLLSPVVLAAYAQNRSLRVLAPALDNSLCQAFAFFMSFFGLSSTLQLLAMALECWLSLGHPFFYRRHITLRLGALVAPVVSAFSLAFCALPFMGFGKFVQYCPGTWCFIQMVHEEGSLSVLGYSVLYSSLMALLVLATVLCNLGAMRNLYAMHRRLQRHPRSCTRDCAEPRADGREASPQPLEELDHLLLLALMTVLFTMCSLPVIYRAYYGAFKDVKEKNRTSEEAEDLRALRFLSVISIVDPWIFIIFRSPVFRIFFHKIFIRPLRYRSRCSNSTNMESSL
Procedure: Experiment 3 Evaluation of Antagonistic Activity Against PGD2 Receptor
Receptor Using Human Platelet
Peripheral blood was collected from a healthy volunteer using a syringe in which 1/9 volume of a citric acid/dextrose solution was previously added. The sample was subjected to centrifugation at 1200 rpm for 10 min to obtain the supernatant (PRP: platelet rich plasma). The resultant PRP was washed 3 times with a washing buffer and the number of platelets was counted with a micro cell counter. A suspension adjusted to contain the platelets at a final concentration of 5×10^8/ml was warmed at 37° C., then subjected to the pre-treatment with 3-isobutyl-1-methylxanthine (0.5 mM) for 5 min. To the suspension was added a test compound diluted at various concentration, and 10 minutes later, 0.1 μM PGD2 was added to induce the reaction 2 minutes later, hydrochloric acid was added to terminate the reaction. The platelet was destroyed with an ultrasonic homogenizer. After centrifugation, the cAMP in the supernatant was determined by radioimmunoassay. PGD2 receptor antagonism of a drug was evaluated as follows: the inhibition rate regarding cAMP increased by the addition of PGD2 was determined at each concentration, and the concentration of the drug required for 50% inhibition (IC50) was calculated.

PGD2 receptor [2] = test: Acceleration of vascular permeability of conjunctiva induced by PGD2 (Evans blue dye leakage); assay type: in vivo, guinea pig; conditions: for ED50 PGD2: oral, 1 h before challenge, 0.1% PGD2 instillation, conjunctival dye leakage, guinea pigs; for inhibition of the increase in vascular permeability in conjunctiva by the stimulation with PGD2: summary of Table 80, oral 1 h before challenge, guinea pig
Procedure: Acceleration of Vascular Permeability of Conjunctiva Induced by PGD2 and U-46619
Using male Hartley guinea pigs, PGD2- and TxA2 receptor-mediated increase in conjunctival vascular permeability was produced by instillation of each 10 μl solution of either 0.1% PGD2 or U-46619 (TXA2 receptor agonist) to the both eyes without anesthetization. Immediately after that, Evans blue dye (20 mg/kg) was intravenously injected. 30 min after the challenge, guinea pigs were sacrificed by bleeding under anesthesia with Pentobarbital (30 mg/kg, i.p.) and the tissue of conjunctiva was removed. The dye leaked into the tissue was extracted in formamide 3 ml at 60° C. for more than 24 h, and then centrifuged. The absorbance of the supernatant was measured at 620 nm. The amount of dye was calculated from the calibration curve of Evans blue dye. Each compound was suspended in 0.5% methyl-cellulose and administrated orally at 1 h before the challenge. The antagonistic activity was evaluated by the inhibition ratio against the dye leaked into conjunctiva caused by PGD2 or U-46619 at each dose and then a 50% effective dose of inhibition (ED50 value) of each compound was calculated.

TXA2 receptor = molecular target: T2, TXA2 receptor (Homo sapiens, UniProt P21731); test: Binding activity to TXA2 receptor ([3H](+)-S-145 sodium salt, human platelet membrane fraction)
T2 construct: The human platelet membrane fraction was prepared in accordance with Experiment 1 (1); from tissue; host or cells: human platelet membrane fraction from blood of healthy volunteers
T2 sequence (P21731 1-343): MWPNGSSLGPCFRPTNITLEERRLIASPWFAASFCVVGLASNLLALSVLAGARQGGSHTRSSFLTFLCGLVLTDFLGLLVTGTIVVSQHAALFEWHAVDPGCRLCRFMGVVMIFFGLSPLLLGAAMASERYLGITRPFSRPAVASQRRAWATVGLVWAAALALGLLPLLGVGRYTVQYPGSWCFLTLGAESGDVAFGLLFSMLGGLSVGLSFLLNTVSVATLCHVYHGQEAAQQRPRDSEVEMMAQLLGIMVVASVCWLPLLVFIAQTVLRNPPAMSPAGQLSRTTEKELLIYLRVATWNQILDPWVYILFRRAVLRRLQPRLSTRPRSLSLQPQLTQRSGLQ
Procedure: Experiment 2 Binding Activity to TXA2 Receptor
(1) Preparation of Human Platelet Membrane Fraction
The human platelet membrane fraction was prepared in accordance with Experiment 1 (1).
(2) Binding to TXA2 Receptor
To a binding-reaction solution (50 mM Tris/HCl, pH 7.4, 10 mM MgCl2) (0.2 ml) were added the human platelet membrane fraction (0.05 mg) and 2 nM Sodium [^3H](+)-(5Z)-7-[3-endo-[(phenylsulfonyl)amino]bicyclo[2.2.1]hept-2-exo-yl]heptenoate (Japanese Patent Publication (Kokoku) No.79060/1993, hereinafter referred to as (+)-S-145 sodium salt) (26.4 Ci/mmol), and the mixture was reacted at room temperature for 90 min. After the reaction, the resultant mixture was filtered through a glass fiber filter paper and washed several times with cooled physiological saline, then the radioactivity retained on the filter paper was measured. The specific-binding ratio was calculated by subtracting the non-specific binding ratio (the radio activity similarly determined in the presence of 10 μM (+)-S-145 sodium salt) from the total binding. The inhibitory activity of each compound was expressed as the concentration required for 50% inhibition (IC50), which was determined by depicting a substitution curve by plotting the binding ratio (%) in the presence of each compound, where the binding ratio in the absence of a test compound is 100%.

[3] = comparative experiment in accordance with Experiment 3, read-out: Experiment 3 Antagonistic activity against PGD2 receptor IC50
[4] = comparative experiment in accordance with Experiment 2, read-out: Experiment 2 Antagonistic activity against TXA2 receptor IC50

Row | Structure (SMILES) | IC50 (PGD2 receptor [1]; [3]) [nM] | ED50 PGD2 (PGD2 receptor [2]) [mg/kg] | inhibition of the increase in vascular permeability in conjunctiva by the stimulation with PGD2 (PGD2 receptor [2]) | IC50 (TXA2 receptor; [4]) [nM] | IC50 (PGD2 receptor [1]; human platelet, 0.1 μM PGD2, read-out: Inhibitory activity for the increase of cAMP caused by PGD2 in human platelet IC50) [nM] | IC50 (TXA2 receptor; human platelet membrane fraction, 2 nM [3H](+)-S-145 sodium salt, read-out: Binding activity to TXA2 receptor in human platelet membrane fraction IC50) [nM]
1 | O=C(O)CCC/C=C\C[C@H]1[C@@H]2CC[C@@H](C2)[C@@H]1NS(=O)(=O)c1ccccc1 [A, reference compound] | > 10000 | >30 | suppressed only U-46619-induced response | 3.8 |  | 
2 | Cc1cccn1S(=O)(=O)c1ccc(C(=O)N[C@@H]2[C@@H](CCCC/C=C/C(=O)O)C[C@H]3C[C@@H]2C3(C)C)s1 [II-7I-55a] | 63 | 0.33 | showed both responses | 2.3 | 63 | 2.3
